According to patent publication US9765035B2 (priority 2013, dated 2017):
Read-outs that look alike come from different tables or passages of the source.

Biological target: human PRMT8 (Homo sapiens, UniProt Q9NR22)
Experiment: biochemical
Excerpt: General Materials. S-adenosylmethionine (SAM), S-adenosylhomocysteine (SAH), bicine, Tween20, dimethylsulfoxide (DMSO), bovine skin gelatin (BSG), isopropyl-β-D-thiogalactopyranoside (IPTG), and Tris(2-carboxyethyl)phosphine hydrochloride solution (TCEP) were purchased from Sigma-Aldrich at the highest level of purity possible. ^3H-SAM was purchase from American Radiolabeled Chemicals with a specific activity of 80 Ci/mmol. 384-well streptavidin Flashplates were purchased from PerkinElmer.
Substrates. Peptide representative of human histone H4 residues 31-45 was synthesized with an N-terminal linker-affinity tag motif and a C-terminal amide cap by 21st Century Biochemicals. The peptide was purified by high-performance liquid chromatography (HPLC) to greater than 95% purity and confirmed by liquid chromatography mass spectrometry (LC-MS). The sequence was Biot-Ahx-[…]-amide (SEQ ID NO.:8).
The resulting construct encodes an N-terminal GST tag and a thrombin cleavage sequence
Protein Expression. E. coli (BL21(DE3) Gold, Stratagene) made competent by the CaCl2 method were transformed with the PRMT8 construct and ampicillin selection. Protein over-expression was accomplished by growing the PRMT8 expressing E. coli clone and inducing expression with 0.3 mM IPTG at 16° C. The culture was grown for 12 hours, harvested by centrifugation, and stored at −80° C. for purification.
Protein Purification. […] GST-tagged PRMT8 was eluted with 50 mM Tris, 2 mM glutathione, pH 7.8. Pooled fractions were cleaved by thrombin (10 U) and dialysed in buffer A. GST was removed by reloading the cleaved protein sample onto glutathione sepharose column and PRMT8 was collected in the flow-through fractions. PRMT8 was purified further by ceramic hydroxyapatite chromatography. The column was washed with 50 mM phosphate buffer, 100 mM NaCl, 5% glycerol, 5 mM β-mercaptoethanol, pH 7.8 and PRMT8 was eluted by 100 mM phosphate in the same buffer. Protein was concentrated and buffer was exchanged to 50 mM Tris, 300 mM NaCl, 10% glycerol, 5 mM β-mercaptoethanol, pH 7.8 by ultrafiltration. The purity of recovered protein was 89%.
General Procedure for PRMT8 Enzyme Assays on Peptide Substrates. The assays were all performed in a buffer consisting of 20 mM Bicine (pH=7.6), 1 mM TCEP, 0.005% BSG, and 0.002% Tween 20, prepared on the day of use. Compounds in 100% DMSO (1 ul) were spotted into a polypropylene 384-well V-bottom plates (Greiner) using a Platemate Plus outfitted with a 384-channel head (Thermo Scientific). DMSO (1 ul) was added to Columns 11, 12, 23, 24, rows A-H for the maximum signal control and 1 ul of SAH, a known product and inhibitor of PRMT8, was added to columns 11, 12, 23, 24, rows I-P for the minimum signal control. A cocktail (40 ul) containing the PRMT8 enzyme was added by Multidrop Combi (Thermo-Fisher). The compounds were allowed to incubate with PRMT8 for 30 min at room temperature, then a cocktail (10 ul) containing ^3H-SAM and peptide was added to initiate the reaction (final volume=51 ul). The final concentrations of the components were as follows: PRMT8 was 1.5 nM, ^3H-SAM was 50 nM, non-radiolabeled SAM was 550 nM, peptide was 150 nM, SAH in the minimum signal control wells was 1 mM, and the DMSO concentration was 2%. The assays were stopped by the addition of non-radiolabeled SAM (10 ul) to a final concentration of 400 uM, which dilutes the ^3H-SAM to a level where its incorporation into the peptide substrate is no longer detectable. 50 ul of the reaction in the 384-well polypropylene plate was then transferred to a 384-well Flashplate and the biotinylated peptides were allowed to bind to the streptavidin surface for at least 1 hour before being washed once with 0.1% Tween20 in a Biotek EL×405 plate washer. […]

[1] = biochemical evaluation, peptide substrate, read-out: PRMT8 IC50
[2] = single experiment or average of multiple experiments, read-out: PRMT8 biochemical evaluation (numerical)

human PRMT8, sequence (Q9NR22 whole entry): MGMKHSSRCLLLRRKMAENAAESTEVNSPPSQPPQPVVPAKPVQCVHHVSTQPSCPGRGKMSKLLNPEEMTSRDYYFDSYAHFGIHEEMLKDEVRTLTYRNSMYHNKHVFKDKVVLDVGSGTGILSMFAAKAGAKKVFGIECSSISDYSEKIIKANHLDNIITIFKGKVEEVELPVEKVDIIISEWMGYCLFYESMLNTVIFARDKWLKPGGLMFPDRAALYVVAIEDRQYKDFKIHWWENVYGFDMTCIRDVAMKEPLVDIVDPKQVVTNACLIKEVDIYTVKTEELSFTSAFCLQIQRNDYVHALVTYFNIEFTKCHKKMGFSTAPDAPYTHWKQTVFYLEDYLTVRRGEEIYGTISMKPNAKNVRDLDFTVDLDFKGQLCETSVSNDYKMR

Row | Compound | IC50 [1] | IC50 [2]
1 | CN(CCN)Cc1n[nH]c2ccc(OCc3ccccc3)cc12 [Compound 1B] | 0.101 to 1 µM | 0.267 µM
2 | CC(C)COc1ccc2[nH]nc(CN(C)CCN)c2c1 [Compound 2, N1-((5-iso-butoxy-1H-indazol-3-yl)methyl)-N1-methylethane-1,2-diamine] | 0.101 to 1 µM | 0.458 µM
3 | CNCCN(C)Cc1n[nH]c2ccc(OCC(C)c3ccccc3)cc12 (centres unmarked) [Compound 19] | < 0.1 µM | –
4 | CNCCN(C)Cc1n[nH]c2ccc(OCc3ccn(C)n3)cc12 [Compound 20] | < 0.1 µM | –
5 | CNCCN(C)Cc1n[nH]c2cccc(OCc3ccccc3)c12 [Compound 21] | < 0.1 µM | 0.0675 µM
6 | CNCCN(C)Cc1n[nH]c2ccc(Oc3cccc(OC)c3)cc12 [Compound 22] | – | 0.0802 µM
7 | CNCCN(C)Cc1n[nH]c2ccc(OCc3ccc(C(C)=O)cc3)cc12 [Compound 23] | – | 0.0428 µM
8 | CNCCN(C)Cc1n[nH]c2cccc(OCCC(C)C)c12 [Compound 31] | 0.101 to 1 µM | –
9 | CNCCN(C)Cc1n[nH]c2ccc(OCc3ccn(CC(C)C)n3)cc12 [Compound 33] | 1.01 to 3 µM | 0.273 µM
10 | CNCCN(C)Cc1n[nH]c2ccc(OC)cc12 [Compound 35] | – | 1.86 µM
11 | CNCCN(C)Cc1n[nH]c2cccc(OCCC(O)CO)c12 (centres unmarked) [Compound 40] | 1.01 to 3 µM | –
12 | CNCCN(C)Cc1n[nH]c2cccc(OCCCC(O)CO)c12 (centres unmarked) [Compound 41, 5-((3-((methyl(2-(methylamino)ethyl)amino)methyl)-1H-indazol-4-yl)oxy)pentane-1,2-diol] | 1.01 to 3 µM | –
13 | CNCCN(C)Cc1n[nH]c2ccc(C(C)C)cc12 [Compound 42, N^1-((5-isopropyl-1H-indazol-3-yl)methyl)-N^1,N^2-dimethylethane-1,2-diamine] | 0.101 to 1 µM | 2.85 µM
14 | CNCCN(C)Cc1n[nH]c2ccc(N3CCC4(CCCCC4)CC3)cc12 [Compound 43, N^1-((5-(3-azaspiro[5.5]undecan-3-yl)-1H-indazol-3-yl)methyl)-N^1,N^2-dimethylethane-1,2-diamine] | 0.101 to 1 µM | 2 µM
15 | CNCCN(C)Cc1n[nH]c2ccc(C3CCOCC3)cc12 [Compound 44, N^1,N^2-dimethyl-N^1-((5-(tetrahydro-2H-pyran-4-yl)-1H-indazol-3-yl)methyl)ethane-1,2-diamine] | < 0.1 µM | 0.236 µM
16 | CNCCN(C)Cc1n[nH]c2ccc(C3=CCOCC3)cc12 [Compound 45] | < 0.1 µM | 0.133 µM
17 | CNCCN(C)Cc1n[nH]c2ccc(N3CCCCC3)cc12 [Compound 46, N^1,N^2-dimethyl-N^1-((5-(piperidin-1-yl)-1H-indazol-3-yl)methyl)ethane-1,2-diamine] | < 0.1 µM | 0.0988 µM
18 | CNCCN(C)Cc1n[nH]c2ccc(C3CCCCC3)cc12 [Compound 47, N^1-((5-cyclohexyl-1H-indazol-3-yl)methyl)-N^1,N^2-dimethylethane-1,2-diamine] | ≤ 0.1 µM | 0.0918 µM
19 | CNCCN(C)Cc1n[nH]c2ccc(C3=CCCCC3)cc12 [Compound 48] | ≤ 0.1 µM | 0.0834 µM
20 | CNCCN(C)Cc1n[nH]c2ccc(Oc3ccccc3C(F)(F)F)cc12 [Compound 49] | – | 0.0454 µM
21 | CNCCN(C)Cc1n[nH]c2ccc(OCC3CCOCC3)cc12 [Compound 50] | – | 0.0387 µM
